Results reported in article PMC6429507, “Triterpene-Based Carboxamides Act as Good Inhibitors of Butyrylcholinesterase” (Molecules, 2019).
Where two headings read alike, the source gives them in different places.

Legend:
[1] = target: acetylcholinesterase (AChE, electric eel) (Electrophorus electricus, UniProt O42275); settings: for Grade of inhibition in% AChE / Ki' (uncompetitive inhibition) / Ki: mean ± SE; for Type of Inhibition / Ki' (uncompetitive inhibition) / Ki: AChE, electric eel; for Ki: read-out: Ki (competitive inhibition)
acetylcholinesterase (AChE, electric eel), sequence (O42275 24-633): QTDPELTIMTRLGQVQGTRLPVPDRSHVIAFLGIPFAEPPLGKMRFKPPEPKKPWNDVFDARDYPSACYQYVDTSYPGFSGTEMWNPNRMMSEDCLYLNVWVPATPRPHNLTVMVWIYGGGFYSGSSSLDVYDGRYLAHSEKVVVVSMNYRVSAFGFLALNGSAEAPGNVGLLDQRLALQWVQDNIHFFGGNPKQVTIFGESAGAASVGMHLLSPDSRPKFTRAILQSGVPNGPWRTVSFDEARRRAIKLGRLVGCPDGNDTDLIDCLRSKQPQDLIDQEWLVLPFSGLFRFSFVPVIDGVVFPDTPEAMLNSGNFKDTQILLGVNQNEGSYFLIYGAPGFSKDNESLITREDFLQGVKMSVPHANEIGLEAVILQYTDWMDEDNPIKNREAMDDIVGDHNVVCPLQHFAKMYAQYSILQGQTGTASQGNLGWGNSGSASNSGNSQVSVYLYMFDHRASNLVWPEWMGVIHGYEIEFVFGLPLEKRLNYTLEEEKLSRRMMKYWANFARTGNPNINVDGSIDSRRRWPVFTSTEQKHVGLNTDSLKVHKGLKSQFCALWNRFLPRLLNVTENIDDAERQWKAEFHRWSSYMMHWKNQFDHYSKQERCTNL
From the text: (§1) In this study, carboxamides with different triterpenoic backbones (ursolic, oleanolic, maslinic, betulinic, and platanic acids), and various amine residues (Scheme 1), were investigated.
(§2) A TECAN SpectraFluorPlus working in the kinetic mode and measuring the absorbance at λ = 415 nm was used for the enzymatic studies. Acetylcholinesterase (from Electrophorus electricus), 5,5′-dithiobis-(2-nitrobenzoic acid) (DTNB) and acetylthiocholine iodide were purchased from Sigma. Butyrylcholinesterase (from equine serum) was purchased from Fluka. Preparation of the solutions, assay procedure, as well as molecular modeling conditions can be found in the Supplementary Materials.
(§3) 3.1 Preparation of the solutions
(§4) Preparation of 50 mM Tris-HCl buffer solutions: Tris(hydroxymethyl)-aminomethane (606 mg) was dissolved in bidestilled water (100 mL) and adjusted with HCl to a pH of 8.0 ± 0.1. Buffers were freshly prepared and stored in the refrigerator. AChE solution 2.005 U/mL: the enzyme (271 U/mg, 0.037 mg) was dissolved in freshly prepared buffer pH 8.0 (5 mL) containing NaN3 (0.98 mg). BChE solution 2.040 U/mL: the enzyme (7.54 U/mg, 1.353 mg) was dissolved in freshly prepared buffer pH 8.0 (5 mL) containing NaN3 (0.98 mg). DTNB solution 3 mM: DTNB (23.8 mg) was dissolved in freshly prepared buffer pH 8.0 (20 mL) containing NaCl (116.8 mg) and MgCl2 (38.0 mg). ATChI solution 15 mM:
(§5) ATChI (43.4 mg) was dissolved in bidestilled water (10 mL). All solutions were stored in Eppendorf caps in the refrigerator or in the freezer, if necessary. The pure compounds were […]
(§6) dissolved in bidistilled water. The final concentrations for the enzymatic assay were obtained by diluting the stock solution with bidistilled water.
(§7) A mixture of the DTNB solution (125 µL), enzyme solution (25 µL) and compounds solutions (25 µL, 3 different concentrations and once blank water) was prepared and incubated at 30 °C for 20 min. The substrate (25 µL, 4 different concentrations) was added to start the enzymatic reaction. The absorbance data (l = 415 nm) was recorded under a controlled temperature of 30 °C for 30 min at 1 min intervals. The substrate concentrations in the test were as follows: […]
(§8) determined as the quotient of the slopes (compound divided by blank) of the linear ranges.
(§9) The used substrate concentration was 0.625 mM. The absorbance data was recorded under a controlled temperature of 30 °C for 10 min.

[2] = target: T1, butyrylcholinesterase (BChE, equine serum) (Equus caballus, UniProt P81908); assay: Ellman's assay, butyrylcholinesterase inhibition; type: biochemical; settings: for Grade of inhibition in% BChE: mean ± SE
T1 construct: Butyrylcholinesterase (from equine serum) was purchased from Fluka; purchased Fluka; host or cells: equine serum
T1 sequence (P81908 whole entry): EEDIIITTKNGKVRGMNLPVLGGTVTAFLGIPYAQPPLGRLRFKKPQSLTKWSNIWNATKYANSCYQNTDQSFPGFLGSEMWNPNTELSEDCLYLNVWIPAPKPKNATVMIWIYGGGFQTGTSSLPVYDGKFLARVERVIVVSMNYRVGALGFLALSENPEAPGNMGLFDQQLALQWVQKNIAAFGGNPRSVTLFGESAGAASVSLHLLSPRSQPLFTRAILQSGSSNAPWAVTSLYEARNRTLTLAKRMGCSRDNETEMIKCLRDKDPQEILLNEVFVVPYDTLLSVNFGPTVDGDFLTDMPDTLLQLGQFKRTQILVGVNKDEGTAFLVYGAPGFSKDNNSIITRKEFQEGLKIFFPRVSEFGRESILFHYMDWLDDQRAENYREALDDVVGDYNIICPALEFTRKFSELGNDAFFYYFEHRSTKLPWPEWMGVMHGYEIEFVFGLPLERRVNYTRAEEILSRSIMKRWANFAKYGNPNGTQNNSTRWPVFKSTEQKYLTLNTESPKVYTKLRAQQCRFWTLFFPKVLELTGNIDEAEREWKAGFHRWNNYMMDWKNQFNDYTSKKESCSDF
From the text: as §1, §2, §3, §4, §5, §6, §7, §8, §9

[3] = BChE, equine serum, Ellman's assay
[4] = BChE, equine serum, Ellman's assay, read-out: Ki (competitive inhibition)
[5] = experimental Ki restated in docking Table 3, unit inferred, read-out: Ki

Compound	Grade of inhibition in% AChE ([1]; c = 30 µM) [%]	Type of Inhibition ([2]; BChE, equine serum)	Ki′ (uncompetitive inhibition) [2, 3] [µM]	Ki [2, 4] [µM]	Grade of inhibition in% BChE ([2]; c = 30 µM) [%]	Type of Inhibition [1]	Ki' (uncompetitive inhibition) [1] [µM]	Ki [1] [µM]	Grade of inhibition in% AChE ([1]; c = 10 µM)	Grade of inhibition in% BChE ([2]; c = 10 µM) [%]	Ki [2, 5] [µM]	selectivity F (percent inhibition for AChE divided by percent inhibition for BChE) ([2]; towards BChE)
C[C@@H]1CC[C@]2(C(=O)NCCN(C)C)CC[C@]3(C)C(=CCC4[C@@]5(C)CC[C@H](O)C(C)(C)C5CC[C@]43C)C2[C@H]1C (stereo partly shown) [Compound 26]	33.53 ± 0.44	mixed-type	3.10 ± 0.30	1.11 ± 0.09	77.74 ± 0.59							
CC(=O)OC1CCC2(C)C(CCC3(C)C2CC=C2C4CC(C)(C)CCC4(C(=O)NCCN4CCCCC4)CCC23C)C1(C)C (stereo not drawn) [Compound 42, (3β)-N-(2-Piperidin-1-ylethyl)-3-acetyloxy-olean-12-en-28-amide]	45.57 ± 0.25				53.09 ± 0.14							
CC(=O)OC1CC2(C)C(CCC3(C)C2CC=C2C4CC(C)(C)CCC4(C(=O)NCCN4CCCCC4)CCC23C)C(C)(C)C1OC(C)=O (stereo not drawn) [Compound 43, (2α,3β)-N-(2-Piperidin-1-ylethyl)-2,3-diacetyloxy-olean-12-en-28-amide]	23.30 ± 0.10				53.47 ± 3.47							
CC(=O)[C@@H]1CC[C@]2(C(=O)NCCN(C)C)CC[C@]3(C)[C@H](CC[C@@H]4[C@@]5(C)CC[C@H](O)C(C)(C)[C@@H]5CC[C@]43C)[C@@H]12 [Compound 30]	28.83 ± 0.80	mixed-type	4.46 ± 0.01	1.12 ± 0.01	89.76 ± 0.48	mixed-type	74.05 ± 4.81	15.5 ± 3.91				
CC1(C)CC[C@]2(C(=O)NCCN3CCCCC3)CC[C@]3(C)C(=CC[C@@H]4[C@@]5(C)CC[C@H](O)C(C)(C)[C@@H]5CC[C@]43C)[C@@H]2C1 [Compound 47, (3β)-N-(2-Piperidin-1-ylethyl)-3-hydroxy-olean-12-en-28-amide]	38.65 ± 0.29	mixed-type	10.42 ± 1.36	1.57 ± 0.01	74.89 ± 0.04							
C=C(C)C1CC[C@]2(C(=O)NCCN3CCCC3)CC[C@]3(C)C(CCC4[C@@]5(C)CC[C@H](OC(C)=O)C(C)(C)C5CC[C@]43C)C12 (stereo partly shown) [Compound 34]		mixed-type	> 5	0.39 ± 0.04					44.15 ± 0.32%	71.56 ± 0.54	0.39	
C=C(C)C1CC[C@]2(C(=O)NCCN3CCCCC3)CC[C@]3(C)C(CCC4[C@@]5(C)CC[C@H](OC(C)=O)C(C)(C)C5CC[C@]43C)C12 (stereo partly shown) [Compound 44]	22.78 ± 0.85				33.83 ± 0.43							
CC(=O)O[C@H]1CC[C@]2(C)[C@H]3CC[C@@H]4[C@H]5[C@H](C(C)=O)CC[C@]5(C(=O)NCCN5CCCC5)CC[C@@]4(C)[C@]3(C)CC[C@H]2C1(C)C [Compound 35, (3β)-N-(2-pyrrolidin-1-ylethyl)-3-acetyloxy-20-oxo-30-norlupan-28-amide]	19.97 ± 0.13	mixed-type	2.38 ± 0.48	0.07 ± 0.01	94.60 ± 0.02						0.07	≈ 0.21
CC(=O)O[C@H]1CC[C@@]2(C)C(CC[C@]3(C)C2CC=C2C4[C@@H](C)[C@H](C)CC[C@]4(C(=O)NCCN(C)C)CC[C@]23C)C1(C)C (stereo partly shown) [Compound 21]		mixed-type	143.36 ± 0.02	6.48 ± 0.1					10.78 ± 0.12%	36.50 ± 0.30		
CC1(C)CC[C@]2(C(=O)NCCN)CC[C@]3(C)C(=CC[C@@H]4[C@@]5(C)CC[C@H](O)C(C)(C)[C@@H]5CC[C@]43C)[C@@H]2C1 [Compound 17, (3β)-N-(2-Aminoethyl)-3-hydroxy-olean-12-en-28-amide]		mixed-type	7.68 ± 0.61	1.93 ± 0.13		mixed-type	18.24 ± 0.06	8.53 ± 0.34	88.61 ± 0.22%	49.10 ± 0.47		
CC(=O)[C@@H]1CC[C@]2(C(=O)NCCN3CCCC3)CC[C@]3(C)[C@H](CC[C@@H]4[C@@]5(C)CC[C@H](O)C(C)(C)[C@@H]5CC[C@]43C)[C@@H]12 [Compound 40]	33.06 ± 0.45	mixed-type	> 10	0.45 ± 0.01	89.15 ± 0.44	mixed-type	23.63 ± 0.39	27.9 ± 2.99				
C=C(C)C1CC[C@]2(C(=O)NCCN(C)C)CC[C@]3(C)C(CCC4[C@@]5(C)CC[C@H](O)C(C)(C)C5CC[C@]43C)C12 (stereo partly shown) [Compound 29]	22.12 ± 4.01	mixed-type	16.11 ± 0.18	3.52 ± 0.07	56.68 ± 0.01							
CC(=O)O[C@H]1CC[C@]2(C)[C@H]3CC[C@@H]4[C@H]5[C@H](C(C)=O)CC[C@]5(C(=O)NCCN5CCCCC5)CC[C@@]4(C)[C@]3(C)CC[C@H]2C1(C)C [Compound 45, (3β)-N-(2-Piperidin-1-ylethyl)-3-acetyloxy-20-oxo-30-norlupan-28-amide]		mixed-type	4.88 ± 0.21	0.71 ± 0.04					no inhibition	83.44 ± 1.00		
CC(=O)[C@@H]1CC[C@]2(C(=O)NCCN)CC[C@]3(C)[C@H](CC[C@@H]4[C@@]5(C)CC[C@H](O)C(C)(C)[C@@H]5CC[C@]43C)[C@@H]12 [Compound 20]		mixed-type	> 110	8.37 ± 0.67		mixed-type	9.71 ± 0.03	7.18 ± 0.02	37.09 ± 0.97%	12.98 ± 0.35		
